Measured values reported in US6348457B1, “4-[3-benzofuranyl]piperidinyl and 4-[3-benzothienyl]piperidinyl derivatives” (Janssen Pharmaceutica N.V., priority 1922, dated 2002).

Key:
[1] = system: Female Wistar rats; test: Reserpine Tremor Test; assay type: in vivo, rat; details: route sc, dose 2.5 mg/kg, 90 min before testing; reserpine 2 mg/kg iv 60 min before testing; 15-min session; number of rats out of rats tested
Method: Female Wistar rats weighing 200-220 g were used. These test animals were food deprived for 24 hours. Said rats were pretreated orally (po) or subcutaneously (sc) with a test compound at 90 minutes before testing. This pretreatment was followed by an intravenous injection of 2 mg/kg reserpine at 60 minutes before testing. Two control groups of 20 rats each were included in the experiment. The first control group consisted of rats that were only treated with a saline solution and the second control group consisted of animals which only received a saline reserpine solution. At the start of the test, the rats were individually placed in specially designed test cages and tremor activity was measured continuously during a 15-min test session. These test cages consisted of a plexiglass chamber. The floor of the test cage consisted of a plexiglass plate which was centered underneath the cage. […] The floor plate rested at its four corners on a rubber point of support. Two pieces of piezo-film were tied up next to each other underneath the middle of the floor plate. Said piezo-films were connected to an amplifier. The test cage was situated in a sound and light attenuating out box, being constantly illuminated and air-ventilated. The piezo-electric response, produced by deformation of the cage floor was amplified by an individual amplifier for each piezo-film separately. […]

melting point: 159.8 °C
SMILES: Cc1nc2ccccn2c(=O)c1CCN1CCC(c2coc3cc(F)ccc23)CC1 [Co. No. 1, 3-[2-[4-(6-fluoro-3-benzofuranyl)-1-piperidinyl]ethyl]-2-methyl-4H-pyrido-[1,2-a]pyrimidin-4-one]
rats showing a tremor activity below 35 counts [1]: 3
